Reference: ChEMBL document CHEMBL5030519, “A "Two-Birds-One-Stone" Approach toward the Design of Bifunctional Human Immunodeficiency Virus Type 1 Entry Inhibitors Targeting the CCR5 Coreceptor and gp41 N-Terminal Heptad Repeat Region” (J Med Chem, 2021)
Residues, ends and D or L forms follow the SMILES beside them. Groups on a side chain read outwards from the residue. *: point of attachment. X1 = CC(=O)N1CCC(C(=O)N(CCCN2CCC(Cc3ccc(C(=O)*)cc3)CC2)c2ccc(C)c(Cl)c2)CC1; PEG12 = NCCOCCOCCOCCOCCOCCOCCOCCOCCOCCOCCOCCOCCC(=O)O

Legend:
[1] = tested on: Human immunodeficiency virus 1; format: functional, organism-based; conditions: Human immunodeficiency virus 1, BaL (subtype B, R5), CEMx174 5.25M7, 144 h
[2] = tested on: Human immunodeficiency virus 1; format: functional, organism-based, V38E/N42S; conditions: cemx174 5.25m7
[3] = tested on: Human immunodeficiency virus 1; format: functional, organism-based, D36G; conditions: cemx174 5.25m7
[4] = tested on: Human immunodeficiency virus 1; format: functional, organism-based, V38A/N427; conditions: cemx174 5.25m7
[5] = tested on: Human immunodeficiency virus 1; format: functional, organism-based, N427/N43K; conditions: cemx174 5.25m7

Row | Compound | EC50 [1] [µM] | EC50 [2] [µM] | EC50 [3] [µM] | EC50 [4] [µM] | EC50 [5] [µM]
1 | CC[C@H](C)[C@H](NC(=O)[C@H](CC(C)C)NC(=O)[C@H](CO)NC(=O)[C@H](Cc1cnc[nH]1)NC(=O)[C@@H](NC(=O)[C@H](CC(C)C)NC(=O)[C@H](CO)NC(=O)[C@@H](NC(=O)[C@H](Cc1ccc(O)cc1)NC(=O)[C@H](CC(N)=O)NC(=O)[C@H](CC(N)=O)NC(C)=O)[C@@H](C)O)[C@@H](C)CC)C(=O)N[C@@H](CCC(=O)O)C(=O)N[C@@H](CCC(=O)O)C(=O)N[C@@H](CO)C(=O)N[C@@H](CCC(N)=O)C(=O)N[C@@H](CC(N)=O)C(=O)N[C@@H](CCC(N)=O)C(=O)N[C@@H](CCC(N)=O)C(=O)N[C@@H](CCC(=O)O)C(=O)N[C@@H](CCCCN)C(=O)N[C@@H](CC(N)=O)C(=O)N[C@@H](CCC(=O)O)C(=O)N[C@@H](CCC(N)=O)C(=O)N[C@@H](CCC(=O)O)C(=O)N[C@@H](CC(C)C)C(=O)N[C@@H](CC(C)C)C(=O)N[C@@H](CCCCNC(=O)CCOCCOCCOCCOCCOCCOCCOCCOCCOCCOCCOCCOCCNC(=O)c1ccc(CC2CCN(CCCN(C(=O)C3CCN(C(C)=O)CC3)c3ccc(C)c(Cl)c3)CC2)cc1)C(N)=O (Ac-NNYTSLIHSLIEESQNQQEKNEQELLK([PEG12-X1])-NH2) | > 0.05 | – | – | – | –
2 | enfuvirtide | 0.00158 | 0.261 | 0.00431 | 0.656 | 0.673
